Test results: ChEMBL document CHEMBL1201862, “PubChem BioAssay data set” (2004)
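Interpolation was linear, between the two tested concentrations surrounding the appropriate level; five concentrations were tested over 48 hours in 96-well plates. The concentration for 50% growth inhibition is given as GI50.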 Activity calls are given as the source filed them. No stated cut-off is given here; in the data, active = GI50 up to about 1.1 µM and inactive = higher.

What was measured:
Assay in all cases: NCI tumour cell line growth inhibition, 48 h
[1] = tested on: OVCAR-8
[2] = tested on: TK-10
[3] = tested on: 786-0
[4] = tested on: DU-145
[5] = tested on: PC-3
[6] = tested on: SF-295
[7] = tested on: SK-OV-3
[8] = tested on: SK-MEL-5
[9] = tested on: MOLT-4
[10] = tested on: EKVX
[11] = tested on: UACC-62
[12] = tested on: NCI-H522
[13] = tested on: NCI/ADR-RES
[14] = tested on: HL-60
[15] = tested on: HOP-62
[16] = tested on: OVCAR-3
[17] = tested on: Hs-578T
[18] = tested on: SF-539
[19] = tested on: SNB-19
[20] = tested on: IGROV-1
[21] = tested on: NCI-H460
[22] = tested on: U-251
[23] = tested on: HT-29
[24] = tested on: MDA-MB-231
[25] = tested on: T47D
[26] = tested on: NCI-H23
[27] = tested on: RPMI-8226
[28] = tested on: SF-268
[29] = tested on: MDA-N
[30] = tested on: OVCAR-5
[31] = tested on: NCI-H226
[32] = tested on: HCT-15
[33] = tested on: MCF7
[34] = tested on: K562
[35] = tested on: HCT-116
[36] = tested on: SN12C
[37] = tested on: RXF 393
[38] = tested on: OVCAR-4
[39] = tested on: A549
[40] = tested on: M14
[41] = tested on: SW-620
[42] = tested on: LOX IMVI
[43] = tested on: COLO 205
[44] = tested on: SK-MEL-2
[45] = tested on: MDA-MB-435
[46] = tested on: UO-31
[47] = tested on: CCRF-CEM
[48] = tested on: A498
[49] = tested on: KM12
[50] = tested on: ACHN
[51] = tested on: HCC 2998
[52] = tested on: UACC-257
[53] = tested on: SK-MEL-28
[54] = tested on: Malme-3M
[55] = tested on: SNB-75
[56] = tested on: CAKI-1

Measured: GI50

CC(=O)N1CC(C)(C)c2c1cc(C)c(O)c2C
> 100 µM: [32]
inactive: [1] > 100 µM | [2] > 100 µM | [3] > 100 µM | [4] > 100 µM | [5] > 100 µM | [6] > 100 µM | [7] > 100 µM | [8] > 100 µM | [9] > 100 µM | [10] > 100 µM | [11] > 100 µM | [12] > 100 µM | [13] > 100 µM | [14] 86.9 µM | [15] > 100 µM | [16] > 100 µM | [17] > 100 µM | [18] > 100 µM | [19] > 100 µM | [20] > 100 µM | [21] > 100 µM | [22] > 100 µM | [23] > 100 µM | [24] > 100 µM | [25] > 100 µM | [26] > 100 µM | [27] > 100 µM | [28] > 100 µM | [29] > 100 µM | [30] > 100 µM | [31] > 100 µM | [33] > 100 µM | [34] > 100 µM | [35] > 100 µM | [36] > 100 µM | [37] > 100 µM | [38] > 100 µM | [39] > 100 µM | [40] > 100 µM | [41] > 100 µM | [42] > 100 µM | [43] > 100 µM | [44] > 100 µM | [45] > 100 µM | [46] > 100 µM | [47] > 100 µM | [48] > 100 µM | [49] > 100 µM | [50] > 100 µM | [51] > 100 µM | [52] > 100 µM | [53] > 100 µM

O=C(Cn1c(=O)ccn(C2OC(CO)C(O)C2F)c1=O)c1ccc(F)cc1 (stereo not drawn)
> 100 µM: [32]
inactive: [1] > 100 µM | [2] > 100 µM | [3] > 100 µM | [4] > 100 µM | [5] > 100 µM | [6] > 100 µM | [8] > 100 µM | [9] > 100 µM | [10] > 100 µM | [11] > 100 µM | [12] > 100 µM | [13] > 100 µM | [14] > 100 µM | [15] > 100 µM | [16] > 100 µM | [17] > 100 µM | [18] > 100 µM | [19] > 100 µM | [20] > 100 µM | [21] > 100 µM | [22] > 100 µM | [23] > 100 µM | [24] > 100 µM | [25] > 100 µM | [26] > 100 µM | [27] > 100 µM | [28] > 100 µM | [29] > 100 µM | [30] > 100 µM | [31] > 100 µM | [33] > 100 µM | [34] > 100 µM | [35] > 100 µM | [36] > 100 µM | [37] > 100 µM | [39] > 100 µM | [54] > 100 µM | [55] 82.2 µM | [56] > 100 µM | [41] > 100 µM | [42] > 100 µM | [43] > 100 µM | [45] > 100 µM | [46] > 100 µM | [47] > 100 µM | [49] > 100 µM | [50] > 100 µM | [52] > 100 µM | [53] > 100 µM
